Patent publication US20240067651A1 (Biohaven Therapeutics Ltd., priority 2019, published 2024)
Each block holds one molecule with its values, some of them ahead of it.

Key:
[1] = Caco-2 Permeability Assay; assay type: in vitro ADME, human; details: human
In short: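 Caco-2 monolayers cultured 21 days (TEER >600 […]); test article at 10 μM in HBSS/HEPES pH 7.4 transport medium, dosed apical or basolateral, ±Pgp inhibitor. Incubated 90 min at 37 °C; both compartments quantified by LC-MS/MS. Papp (A→B, B→A), efflux ratio and % recovery calculated.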

[2] = Stability in Simulated Gastric Fluid (SGF); assay type: in vitro ADME; design: key: % parent compound remaining relative to 0-minute sample
In short: (§1)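 Compound at 2 μg/mL final was incubated at 37 °C with shaking in SGF with pepsin (pH 1.2) or SIF with pancreatin (pH 6.8), sampled from 0 to 60 min. After acetonitrile precipitation, LC-MS/MS gave % parent remaining vs 0 min; half-life came from ln(% remaining) vs time.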

[3] = Stability in Simulated Intestinal Fluid (SIF); assay type: in vitro ADME; design: key: % parent compound remaining relative to 0-minute sample
In short: as §1

Plasma Stability = assay type: in vitro ADME, human
In short: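 Compounds incubated at 1 μM in fresh human plasma for 1 hour at 37° C, then protein-precipitated with acetonitrile/formic acid containing internal standard. Remaining parent measured by LC-MS/MS in triplicate, expressed as percent of control remaining.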

[4] = Caco-2, pH 7.4, Caco-2 monolayer
[5] = % remaining at 1 h in simulated gastric fluid
[6] = % remaining at 1 h in simulated intestinal fluid
[7] = % remaining at 1 h in human plasma
[8] = Caco-2, pH 7.4, Caco-2 monolayer, the 15th table
[9] = % remaining at 1 h in simulated gastric fluid, the 15th table
[10] = % remaining at 1 h in simulated intestinal fluid, the 15th table
[11] = % remaining at 1 h in human plasma, the 15th table
[12] = % @ 1 h (remaining) in simulated gastric fluid
[13] = % @ 1 h (remaining) in simulated intestinal fluid
[14] = % @ 1 h (remaining) in human plasma
[15] = Caco-2, pH 7.4, donor 10 μM, 90 minutes, 37° C., direction not given
[16] = % remaining at 1 h, SGF with pepsin pH 1.2, 2 μg/mL, 37° C.
[17] = % remaining at 1 h, SIF with pancreatin pH 6.8, 2 μg/mL, 37° C.
[18] = % remaining at 1 h, human plasma, 1 μM, 37° C.
[19] = Caco-2, pH 7.4, no unit printed at the place (tables the 9th table and the 10th table have no head)
[20] = bare number, no % and no time given

SMILES: CC(C)OCCn1c(=S)[nH]c(=O)c2c1ccn2COC(=O)CCCCNC(=O)[C@@H](NC(=O)OC(C)(C)C)[C@@H](C)O.O=C(O)C(F)(F)F [Example 35]
- Papp at 90 min, 10 µM [1, 4]: 1.91 ×10⁻⁶ cm/s
- SGF [2, 5]: 91% remaining
- SIF [3, 6]: 99% remaining
- human Plasma stability (Plasma Stability; [7]): 30% remaining

SMILES: CC(C)OCCn1c(=S)[nH]c(=O)c2c1ccn2COC(=O)CCCCNC(=O)CN(C)C(=O)OC(C)(C)C.O=C(O)C(F)(F)F [Example 53]
- Papp at 90 min, 10 µM [1, 4]: 3.43 ×10⁻⁶ cm/s
- SGF [2, 5]: 92% remaining
- SIF [3, 6]: 98% remaining
- human Plasma stability (Plasma Stability; [7]): 0% remaining

SMILES: CC(C)OCCn1c(=S)[nH]c(=O)c2c1ccn2COC(=O)[C@H](N)Cc1ccccc1.O=C(O)C(F)(F)F [Example 311, trifluoroacetic acid {4-oxo-1-[2-(propan-2-yloxy)ethyl]-2-sulfanylidene-1H,2H,3H,4H,5H-pyrrolo[3,2-d]pyrimidin-5-yl}methyl (2R)-2-amino-3-phenylpropanoate]
- Papp at 90 min, 10 µM ([1]; Caco-2, pH 7.4): 5.44 ×10⁻⁶ cm/s
- SGF ([2]; % remaining @ 1 h): 98% @ 1 h
- SIF ([3]; % remaining @ 1 h): 7% @ 1 h
- human Plasma stability (Plasma Stability; % remaining @ 1 h): 4% @ 1 h

SMILES: CCCCN(C)C(=O)OCSc1nc(=O)c2[nH]ccc2n1CCOC(C)C.O=C(O)C(F)(F)F [Example 160]
- Papp at 90 min, 10 µM [1, 4]: 15.8 ×10⁻⁶ cm/s
- SGF [2, 12]: 92% @ 1 h
- SIF [3, 13]: 95% @ 1 h
- human Plasma stability (Plasma Stability; [14]): 99% @ 1 h

SMILES: CC(C)OCCn1c(=S)[nH]c(=O)c2c1ccn2COC(=O)CCNC(=O)[C@@H](N)C(C)C.O=C(O)C(F)(F)F [Example 14]
- Papp at 90 min, 10 µM [1, 4]: < 0.203 ×10⁻⁶ cm/s
- SGF [2, 5]: 95% remaining
- SIF [3, 6]: 84% remaining
- human Plasma stability (Plasma Stability; [7]): 55% remaining

SMILES: COC(=O)[C@H](CCCCNC(=O)[C@@H](N)C(C)C)NC(=O)OCn1ccc2c1c(=O)[nH]c(=S)n2CCOC(C)C.O=C(O)C(F)(F)F [Example 114, trifluoroacetic acid methyl (2S)-6-[(2S)-2-amino-3-methylbutanamido]-2-{[{{4-oxo-1-[2-(propan-2-yloxy)ethyl]-2-sulfanylidene-1H,2H,3H,4H,5H-pyrrolo[3,2-d]pyrimidin-5-yl}methoxy)carbonyl]amino}hexanoate]
- Papp at 90 min, 10 µM [1, 15]: 0.102 ×10⁻⁶ cm/s
- SGF [2, 16]: 98%
- SIF [3, 17]: 89%
- human Plasma stability (Plasma Stability; [18]): 93%

SMILES: CC(C)OCCn1c(=S)[nH]c(=O)c2c1ccn2COC(=O)CCCCNC(=O)[C@@H](N)Cc1c[nH]c2ccccc12.O=C(O)C(F)(F)F [Example 51]
- Papp at 90 min, 10 µM [1, 4]: 0.519 ×10⁻⁶ cm/s
- SGF [2, 5]: 94% remaining
- SIF [3, 6]: 83% remaining
- human Plasma stability (Plasma Stability; [7]): 2% remaining

SMILES: C=CCCN(C)C(=O)OCSc1nc(=O)c2c(ccn2COC(=O)N(C)CCC=C)n1CCOC(C)C.O=C(O)C(F)(F)F [Example 180]
- Papp at 90 min, 10 µM [1, 4]: 25.9 ×10⁻⁶ cm/s
- SGF [2, 12]: 99% @ 1 h
- SIF [3, 13]: 82% @ 1 h
- human Plasma stability (Plasma Stability; [14]): 99% @ 1 h

SMILES: CC(C)OCCn1c(=S)[nH]c(=O)c2c1ccn2COC(=O)CCNC(=O)[C@@H]1CCCN1C(N)=O.O=C(O)C(F)(F)F [Example 62]
- Papp at 90 min, 10 µM [1, 4]: 0.162 ×10⁻⁶ cm/s
- SGF [2, 5]: 99% remaining
- SIF [3, 6]: 99% remaining
- human Plasma stability (Plasma Stability; [7]): 91% remaining

SMILES: COC(=O)[C@H](CCCCNC(=O)OC(C)(C)C)NC(=O)OCn1ccc2c1c(=O)[nH]c(=S)n2CCOC(C)C [Example 101, methyl (2S)-6-{[(tert-butoxy)carbonyl]amino}-2-{[{{4-oxo-1-[2-(propan-2-yloxy)ethyl]-2-sulfanylidene-1H,2H,3H,4H,5H-pyrrolo[3,2-d]pyrimidin-5-yl}methoxy)carbonyl]amino}hexanoate]
- Papp at 90 min, 10 µM [1, 19]: 1.46 ×10⁻⁶ cm/s
- SGF [2, 16]: 75%
- SIF [3, 17]: 96%
- human Plasma stability (Plasma Stability; [18]): 97%

Next, values leading:

- Papp at 90 min, 10 µM [1, 8]: 13.8 ×10⁻⁶ cm/s
- SGF [2, 9]: 99% @ 1 h
- SIF [3, 10]: 98% @ 1 h
- human Plasma stability (Plasma Stability; [11]): 99% @ 1 h
SMILES: CCN(C(=O)OCSc1nc(=O)c2[nH]ccc2n1CCOC(C)C)C(C)C [Example 190]

- Papp at 90 min, 10 µM [1, 4]: 6.58 ×10⁻⁶ cm/s
- SGF [2, 5]: 99% remaining
- SIF [3, 6]: 75% remaining
- human Plasma stability (Plasma Stability; [7]): 1% remaining
SMILES: CC(C)OCCn1c(SCOC(=O)C2CCN(C(=O)OC(C)(C)C)CC2)nc(=O)c2c1ccn2COC(=O)CCC(=O)OC(C)(C)C [Example 131]

- Papp at 90 min, 10 µM [1, 8]: 1.08 ×10⁻⁶ cm/s
- SGF [2, 9]: 15% @ 1 h
- SIF [3, 10]: 82% @ 1 h
- human Plasma stability (Plasma Stability; [11]): 16% @ 1 h
SMILES: CC(C)OCCn1c(=S)[nH]c(=O)c2c1ccn2C(=O)OC(C)(C)C [Example 191]

- Papp at 90 min, 10 µM [1, 15]: 0.46 ×10⁻⁶ cm/s
- SGF [2, 16]: 97%
- SIF [3, 17]: 68%
- human Plasma stability (Plasma Stability; [18]): 45%
SMILES: CC(C)OCCn1c(=S)[nH]c(=O)c2c1ccn2COC(=O)CCN [Example 8, Trifluoroacetic acid {4-oxo-1-[2-(propan-2-yloxy)ethyl]-2-sulfanylidene-1H,2H,3H,4H,5H-pyrrolo[3,2-d]pyrimidin-5-yl}methyl 3-aminopropanoate]

- Papp at 90 min, 10 µM [1, 15]: 0.4 ×10⁻⁶ cm/s
- SGF [2, 16]: 100%
- SIF [3, 17]: 94%
- human Plasma stability (Plasma Stability; [18]): 76%
SMILES: CC(C)OCCn1c(=S)[nH]c(=O)c2c1ccn2COC(=O)CCCCNC(=O)[C@@H](N)C(C)C [Example 12, Trifluoroacetic acid {4-oxo-1-[2-(propan-2-yloxy)ethyl]-2-sulfanylidene-1H,2H,3H,4H,5H-pyrrolo[3,2-d]pyrimidin-5-yl}methyl 5-[(2S)-2-amino-3-methylbutanamido]pentanoate]

- Papp at 90 min, 10 µM [1, 8]: 7.23 ×10⁻⁶ cm/s
- SGF [2, 9]: 86% @ 1 h
- SIF [3, 10]: 100% @ 1 h
- human Plasma stability (Plasma Stability; [11]): 98% @ 1 h
SMILES: CC(C)CNC(=O)OCSc1nc(=O)c2[nH]ccc2n1CCOC(C)C [Example 186]

- Papp at 90 min, 10 µM [1, 4]: 5.41 ×10⁻⁶ cm/s
- SGF [2, 5]: 92% remaining
- SIF [3, 6]: 62% remaining
- human Plasma stability (Plasma Stability; [7]): 98% remaining
SMILES: CSCC[C@H](NC(=O)OC(C)(C)C)C(=O)NCCC(=O)OCn1ccc2c1c(=O)[nH]c(=S)n2CCOC(C)C [Example 29]

- Papp at 90 min, 10 µM [1, 19]: 24.3 ×10⁻⁶ cm/s
- SGF [2, 16]: 95%
- SIF [3, 17]: 84%
- human Plasma stability (Plasma Stability; [18]): 14%
SMILES: COCCOCCOC(=O)OCn1ccc2c1c(=O)[nH]c(=S)n2CCOC(C)C [Example 105, 2-(2-methoxyethoxy)ethyl {4-oxo-1-[2-(propan-2-yloxy)ethyl]-2-sulfanylidene-1H,2H,3H,4H,5H-pyrrolo[3,2-d]pyrimidin-5-yl}methyl carbonate]

- Papp at 90 min, 10 µM [1, 15]: 13.4 ×10⁻⁶ cm/s
- SGF [2, 16]: 97%
- SIF [3, 17]: 94%
- human Plasma stability (Plasma Stability; [18]): 40%
SMILES: CC(C)OCCn1c(=S)[nH]c(=O)c2c1ccn2COC(=O)[C@@H]1CCC(=O)N1C(=O)OCc1ccccc1 [Example 4, 1-benzyl 2-{4-oxo-1-[2-(propan-2-yloxy)ethyl]-2-sulfanylidene-1H,2H,3H,4H,5H-pyrrolo[3,2-d]pyrimidin-5-yl}methyl (2S)-5-oxopyrrolidine-1,2-dicarboxylate]

- Papp at 90 min, 10 µM [1, 4]: 6.7 ×10⁻⁶ cm/s
- SGF [2, 5]: 99% remaining
- SIF [3, 6]: 75% remaining
- human Plasma stability (Plasma Stability; [7]): 62% remaining
SMILES: CSCC[C@H](NC(=O)OC(C)(C)C)C(=O)NCCCCC(=O)OCn1ccc2c1c(=O)[nH]c(=S)n2CCOC(C)C [Example 28]

- Papp at 90 min, 10 µM [1, 15]: 20.3 ×10⁻⁶ cm/s
- SGF [2, 20]: 98
- SIF [3, 20]: 97
- human Plasma stability (Plasma Stability; [18]): 98% remaining
SMILES: CC(C)OCCn1c(SCOC(=O)N(CC(F)(F)F)CC(F)(F)F)nc(=O)c2[nH]ccc21 [Example 96, ({4-oxo-1-[2-(propan-2-yloxy)ethyl]-1H,4H,5H-pyrrolo[3,2-d]pyrimidin-2-yl}sulfanyl)methyl N,N-bis(2,2,2-trifluoroethyl)carbamate]
